Source: patent US20230157952A1, “METHOD FOR IMPROVING THE STABILITY OF A PHARMACEUTICAL COMPOSITION COMPRISING A HIGH PENETRATION DRUG, AND THE PHARMACEUTICAL COMPOSITION OBTAINED THEREFROM” (Techfields Inc., priority 2020, published 2023)

Assay: Effect of solvent on the stability of the solution (purity at various pH values and temperature)
Format: physicochemical
Settings: 7% solution

## CCN(CC)CCOC(=O)c1ccccc1OC(C)=O.Cl
Solvent 25% ethanol, pH 8.0, day 14, 60° C.
  Purity (%) at day 14 (60° C.): 0%
Solvent 50% ethanol, pH 1.0, day 0
  Purity(%) at day 0: 99.2 ± 0.3%
Solvent 50% ethanol, pH 1.0, day 14, 5° C.
  Purity(%) at day 14 (5° C.): 92.4 ± 0.3%
Solvent 50% ethanol, pH 1.0, day 14, 25° C.
  Purity(%) at day 14 (25° C.): 63.8 ± 0.4%
Solvent 50% ethanol, pH 1.0, day 14, 40° C.
  Purity(%) at day 14 (40° C.): 0%
Solvent 50% ethanol, pH 1.0, day 14, 60° C.
  Purity (%) at day 14 (60° C.): 0%
Solvent 50% ethanol, pH 2.0, day 0
  Purity(%) at day 0: 99.5 ± 0.2%
Solvent 50% ethanol, pH 2.0, day 14, 5° C.
  Purity(%) at day 14 (5° C.): 96.9 ± 0.3%
Solvent 50% ethanol, pH 2.0, day 14, 25° C.
  Purity(%) at day 14 (25° C.): 84.7 ± 0.3%
Solvent 50% ethanol, pH 2.0, day 14, 40° C.
  Purity(%) at day 14 (40° C.): 0%
Solvent 50% ethanol, pH 2.0, day 14, 60° C.
  Purity (%) at day 14 (60° C.): 0%
Solvent 50% ethanol, pH 3.0, day 0
  Purity(%) at day 0: 99.6 ± 0.3%
Solvent 50% ethanol, pH 3.0, day 14, 25° C.
  Purity(%) at day 14 (25° C.): 89.5 ± 0.3%
Solvent 50% ethanol, pH 3.0, day 14, 40° C.
  Purity(%) at day 14 (40° C.): 3.2 ± 0.3%
Solvent 50% ethanol, pH 3.0, day 14, 60° C.
  Purity (%) at day 14 (60° C.): 0%
Solvent 50% ethanol, pH 3.7, day 0
  Purity(%) at day 0: 99.7 ± 0.2%
Solvent 50% ethanol, pH 3.7, day 14, 5° C.
  Purity(%) at day 14 (5° C.): 99.1 ± 0.3%
Solvent 50% ethanol, pH 3.7, day 14, 25° C.
  Purity(%) at day 14 (25° C.): 96.6 ± 0.2%
Solvent 50% ethanol, pH 3.7, day 14, 40° C.
  Purity(%) at day 14 (40° C.): 16.9 ± 0.3%
Solvent 50% ethanol, pH 3.7, day 14, 60° C.
  Purity (%) at day 14 (60° C.): 0%
Solvent 50% ethanol, pH 4.0, day 0
  Purity(%) at day 0: 99.8 ± 0.2%
Solvent 50% ethanol, pH 4.0, day 14, 5° C.
  Purity(%) at day 14 (5° C.): 99.2 ± 0.3%
Solvent 50% ethanol, pH 4.0, day 14, 25° C.
  Purity(%) at day 14 (25° C.): 97.2 ± 0.3%
Solvent 50% ethanol, pH 4.0, day 14, 40° C.
  Purity(%) at day 14 (40° C.): 16.8 ± 0.4%
Solvent 50% ethanol, pH 4.0, day 14, 60° C.
  Purity (%) at day 14 (60° C.): 0%
Solvent 50% ethanol, pH 4.3, day 0
  Purity(%) at day 0: 99.7 ± 0.2%
Solvent 50% ethanol, pH 4.3, day 14, 5° C.
  Purity(%) at day 14 (5° C.): 99.1 ± 0.2%
Solvent 50% ethanol, pH 4.3, day 14, 25° C.
  Purity(%) at day 14 (25° C.): 97.2 ± 0.2%
Solvent 50% ethanol, pH 4.3, day 14, 40° C.
  Purity(%) at day 14 (40° C.): 14.9 ± 0.3%
Solvent 50% ethanol, pH 4.3, day 14, 60° C.
  Purity (%) at day 14 (60° C.): 0%
Solvent 50% ethanol, pH 4.6, day 0
  Purity(%) at day 0: 99.7 ± 0.3%
Solvent 50% ethanol, pH 4.6, day 14, 25° C.
  Purity(%) at day 14 (25° C.): 96.9 ± 0.3%
Solvent 50% ethanol, pH 4.6, day 14, 40° C.
  Purity(%) at day 14 (40° C.): 4.9 ± 0.3%
Solvent 50% ethanol, pH 4.6, day 14, 60° C.
  Purity (%) at day 14 (60° C.): 0%
Solvent 50% ethanol, pH 5.0, day 0
  Purity(%) at day 0: 99.6 ± 0.2%
Solvent 50% ethanol, pH 5.0, day 14, 25° C.
  Purity(%) at day 14 (25° C.): 93.1 ± 0.3%
Solvent 50% ethanol, pH 5.0, day 14, 40° C.
  Purity(%) at day 14 (40° C.): 2.3 ± 0.2%
Solvent 50% ethanol, pH 5.0, day 14, 60° C.
  Purity (%) at day 14 (60° C.): 0%
Solvent 50% ethanol, pH 6.0, day 0
  Purity(%) at day 0: 99.5 ± 0.3%
Solvent 50% ethanol, pH 6.0, day 14, 5° C.
  Purity(%) at day 14 (5° C.): 92.9 ± 0.4%
Solvent 50% ethanol, pH 6.0, day 14, 25° C.
  Purity(%) at day 14 (25° C.): 85.5 ± 0.3%
Solvent 50% ethanol, pH 6.0, day 14, 40° C.
  Purity(%) at day 14 (40° C.): 0%
Solvent 50% ethanol, pH 6.0, day 14, 60° C.
  Purity (%) at day 14 (60° C.): 0%
Solvent 50% ethanol, pH 7.0, day 0
  Purity(%) at day 0: 99.4 ± 0.3%
Solvent 50% ethanol, pH 7.0, day 14, 5° C.
  Purity(%) at day 14 (5° C.): 88.2 ± 0.3%
Solvent 50% ethanol, pH 7.0, day 14, 25° C.
  Purity(%) at day 14 (25° C.): 61.9 ± 0.4%
Solvent 50% ethanol, pH 7.0, day 14, 40° C.
  Purity(%) at day 14 (40° C.): 0%
Solvent 50% ethanol, pH 7.0, day 14, 60° C.
  Purity (%) at day 14 (60° C.): 0%
Solvent 50% ethanol, pH 8.0, day 0
  Purity(%) at day 0: 99.2 ± 0.3%
Solvent 50% ethanol, pH 8.0, day 14, 5° C.
  Purity(%) at day 14 (5° C.): 60.3 ± 0.4%
Solvent 50% ethanol, pH 8.0, day 14, 25° C.
  Purity(%) at day 14 (25° C.): 23.9 ± 0.4%
Solvent 50% ethanol, pH 8.0, day 14, 40° C.
  Purity(%) at day 14 (40° C.): 0%
Solvent 50% ethanol, pH 8.0, day 14, 60° C.
  Purity (%) at day 14 (60° C.): 0%
Solvent water, pH 1.0, day 0
  Purity(%) at day 0: 99.1 ± 0.3%
Solvent water, pH 1.0, day 14, 5° C.
  Purity(%) at day 14 (5° C.): 90.8 ± 0.3%
Solvent water, pH 1.0, day 14, 25° C.
  Purity(%) at day 14 (25° C.): 62.2 ± 0.4%
Solvent water, pH 1.0, day 14, 40° C.
  Purity(%) at day 14 (40° C.): 0%
Solvent water, pH 1.0, day 14, 60° C.
  Purity (%) at day 14 (60° C.): 0%
Solvent water, pH 2.0, day 0
  Purity(%) at day 0: 99.3 ± 0.2%
Solvent water, pH 2.0, day 14, 5° C.
  Purity(%) at day 14 (5° C.): 96.3 ± 0.2%
Solvent water, pH 2.0, day 14, 25° C.
  Purity(%) at day 14 (25° C.): 83.3 ± 0.3%
Solvent water, pH 2.0, day 14, 40° C.
  Purity(%) at day 14 (40° C.): 0%
Solvent water, pH 2.0, day 14, 60° C.
  Purity (%) at day 14 (60° C.): 0%
Solvent water, pH 3.0, day 0
  Purity(%) at day 0: 99.5 ± 0.2%
Solvent water, pH 3.0, day 14, 25° C.
  Purity(%) at day 14 (25° C.): 88.5 ± 0.2%
Solvent water, pH 3.0, day 14, 40° C.
  Purity(%) at day 14 (40° C.): 2.5 ± 0.2%
Solvent water, pH 3.0, day 14, 60° C.
  Purity (%) at day 14 (60° C.): 0%
Solvent water, pH 3.7, day 0
  Purity(%) at day 0: 99.5 ± 0.1%
Solvent water, pH 3.7, day 14, 25° C.
  Purity(%) at day 14 (25° C.): 96.1 ± 0.1%
Solvent water, pH 3.7, day 14, 40° C.
  Purity(%) at day 14 (40° C.): 14.5 ± 0.3%
Solvent water, pH 3.7, day 14, 60° C.
  Purity (%) at day 14 (60° C.): 0%
Solvent water, pH 4.0, day 0
  Purity(%) at day 0: 99.6 ± 0.1%
Solvent water, pH 4.0, day 14, 25° C.
  Purity(%) at day 14 (25° C.): 96.6 ± 0.2%
Solvent water, pH 4.0, day 14, 40° C.
  Purity(%) at day 14 (40° C.): 14.5 ± 0.3%
Solvent water, pH 4.0, day 14, 60° C.
  Purity (%) at day 14 (60° C.): 0%
Solvent water, pH 4.3, day 0
  Purity(%) at day 0: 99.7 ± 0.1%
Solvent water, pH 4.3, day 14, 25° C.
  Purity(%) at day 14 (25° C.): 96.6 ± 0.1%
Solvent water, pH 4.3, day 14, 40° C.
  Purity(%) at day 14 (40° C.): 12.9 ± 0.2%
Solvent water, pH 4.3, day 14, 60° C.
  Purity (%) at day 14 (60° C.): 0%
Solvent water, pH 4.6, day 0
  Purity(%) at day 0: 99.5 ± 0.2%
Solvent water, pH 4.6, day 14, 25° C.
  Purity(%) at day 14 (25° C.): 96.5 ± 0.2%
Solvent water, pH 4.6, day 14, 40° C.
  Purity(%) at day 14 (40° C.): 3.6 ± 0.2%
Solvent water, pH 4.6, day 14, 60° C.
  Purity (%) at day 14 (60° C.): 0%
Solvent water, pH 5.0, day 0
  Purity(%) at day 0: 99.5 ± 0.1%
Solvent water, pH 5.0, day 14, 5° C.
  Purity(%) at day 14 (5° C.): 97.3 ± 0.1%
Solvent water, pH 5.0, day 14, 25° C.
  Purity(%) at day 14 (25° C.): 92.5 ± 0.2%
Solvent water, pH 5.0, day 14, 40° C.
  Purity(%) at day 14 (40° C.): 1.0%
Solvent water, pH 5.0, day 14, 60° C.
  Purity (%) at day 14 (60° C.): 0%
Solvent water, pH 6.0, day 0
  Purity(%) at day 0: 99.4 ± 0.3%
Solvent water, pH 6.0, day 14, 5° C.
  Purity(%) at day 14 (5° C.): 92.1 ± 0.2%
Solvent water, pH 6.0, day 14, 25° C.
  Purity(%) at day 14 (25° C.): 84.7 ± 0.3%
Solvent water, pH 6.0, day 14, 40° C.
  Purity(%) at day 14 (40° C.): 0%
Solvent water, pH 6.0, day 14, 60° C.
  Purity (%) at day 14 (60° C.): 0%
Solvent water, pH 7.0, day 0
  Purity(%) at day 0: 99.2 ± 0.3%
Solvent water, pH 7.0, day 14, 5° C.
  Purity(%) at day 14 (5° C.): 87.9 ± 0.3%
Solvent water, pH 7.0, day 14, 25° C.
  Purity(%) at day 14 (25° C.): 59.8 ± 0.3%
Solvent water, pH 7.0, day 14, 40° C.
  Purity(%) at day 14 (40° C.): 0%
Solvent water, pH 7.0, day 14, 60° C.
  Purity (%) at day 14 (60° C.): 0%
Solvent water, pH 8.0, day 14, 5° C.
  Purity(%) at day 14 (5° C.): 57.9 ± 0.3%
Solvent water, pH 8.0, day 14, 25° C.
  Purity(%) at day 14 (25° C.): 21.7 ± 0.4%
Solvent water, pH 8.0, day 14, 40° C.
  Purity(%) at day 14 (40° C.): 0%
Solvent water, pH 8.0, day 14, 60° C.
  Purity (%) at day 14 (60° C.): 0%
